This is an account of results in ChEMBL document CHEMBL1201862, “PubChem BioAssay data set” (2004).

Common to all, as to assay: inhibition of tumour cell growth, NCI panel, 48 h
The test system of assay [1] is RPMI-8226.
Assay [2] concerns SNB-75.
Assay [3] concerns HCT-15.
For assay [4], the system named is U-251.
Assay [5] has as its system NCI-H460.
In assay [6] the test system is SF-539.
Assay [7] has as its system SK-MEL-5.
For assay [8], the system named is OVCAR-4.
Assay [9] deals with OVCAR-5.
The test system of assay [10] is K562.
Assay [11] deals with SNB-19.
Assay [12] relates to NCI-H226.
For assay [13], the system named is HOP-62.
The subject of assay [14] is UACC-257.
For assay [15], the system named is SK-MEL-2.
Assay [16] deals with A549.
Assay [17] deals with SW-620.
The subject of assay [18] is Malme-3M.
The subject of assay [19] is SF-268.
Assay [20] concerns CAKI-1.

Structures are written as SMILES.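 Where inhibition never reached the appropriate level, the endpoint shown equals the highest concentration tested. Otherwise, values were interpolated linearly from a five-concentration, 48-hour dose response in 96-well plates. Here, GI50 denotes the concentration required for 50% inhibition of growth.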 The source made the active and inactive calls. No stated cut-off is given here; in the data, active = GI50 up to about 1.1 µM and inactive = higher.

On to `C[C@H]1[C@H](C)N(Cc2ccccc2)P(=O)(C(O)/C=C/c2ccccc2)N1Cc1ccccc1` (stereo not given in full), for which the GI50 in [1] is 6.22 µM (inactive); in assay [2], 6.95 µM (inactive); in assay [3], 9.29 µM; in [4], 5.11 µM (inactive); in assay [5], 3.72 µM (inactive); in assay [6], 5.07 µM (inactive). The GI50 in assay [7] is 4.55 µM (inactive); in [8] it was 5.04 µM (inactive); in assay [9], 6.61 µM (inactive); in assay [10], 7.74 µM (inactive); in [11], 12 µM (inactive); in assay [12] it was 7.52 µM (inactive). For the same compound, the GI50 in [13] is 8.41 µM (inactive); in assay [14], 5.42 µM (inactive); in assay [15], 4.7 µM (inactive); in [16], 8.07 µM (inactive); in [17], 9.25 µM (inactive); in assay [18] it was 5.58 µM (inactive). Moreover, the GI50 was 6.84 µM (inactive) in assay [19] and 8.28 µM (inactive) in [20].
